Measurements published in patent US11253524B2 (Gilead Sciences, Inc., priority 2018, dated 2022).
pIC50: −log10 of the molar value.

Legend:
[1] = In vivo BIC metabolism, plasma profile after oral [14C]BIC, mouse; details: transgenic mice, 0 to 48 hours post dose, ND = not detected
Excerpt: Metabolic pathways included hydroxylation, oxidative defluorination, direct glucuronidation, and oxidation followed by phase II conjugation. In the monkey, BIC was metabolized through the oxidative pathways to a greater extent compared to rat and human.

[2] = molecular target: T1, OATP1B1 (Homo sapiens, UniProt Q9Y6L6); experiment: OATP1B1 inhibition assay using 3H-E217βG as probe substrate, HEK293FT cells; format: cell-based; design: expressed in transfected cells; details: for IC50 (μM): NIO = no interaction observed
T1 sequence (Q9Y6L6 1-691): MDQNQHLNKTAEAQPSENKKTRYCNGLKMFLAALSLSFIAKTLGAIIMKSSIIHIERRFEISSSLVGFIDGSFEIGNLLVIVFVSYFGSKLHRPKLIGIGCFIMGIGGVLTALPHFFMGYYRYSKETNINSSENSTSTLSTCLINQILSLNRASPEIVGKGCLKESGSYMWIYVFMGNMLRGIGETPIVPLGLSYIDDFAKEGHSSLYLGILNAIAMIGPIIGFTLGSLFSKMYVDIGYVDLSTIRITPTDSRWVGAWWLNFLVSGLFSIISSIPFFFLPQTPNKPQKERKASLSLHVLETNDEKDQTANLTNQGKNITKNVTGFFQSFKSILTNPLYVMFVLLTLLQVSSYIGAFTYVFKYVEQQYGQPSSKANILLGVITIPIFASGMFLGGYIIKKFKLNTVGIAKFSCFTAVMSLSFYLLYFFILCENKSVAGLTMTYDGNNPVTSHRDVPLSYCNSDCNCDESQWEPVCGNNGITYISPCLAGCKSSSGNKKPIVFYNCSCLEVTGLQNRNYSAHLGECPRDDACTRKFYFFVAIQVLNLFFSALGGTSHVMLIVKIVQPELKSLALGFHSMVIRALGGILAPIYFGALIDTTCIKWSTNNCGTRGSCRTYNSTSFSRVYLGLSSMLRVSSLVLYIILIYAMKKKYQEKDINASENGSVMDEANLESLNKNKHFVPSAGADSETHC
Procedure: (§1) HEK293FT-Mock and OATP-transfected cells (1×10^5 cells each) were seeded 24 hr prior to assay. Pre-rinsed ells were incubated for 3 minutes with 1 μM ^3H-E217βG in HK buffer in the presence of various concentrations of test compound or positive control rifampicin. After the experiment cells were rinsed with Krebs-Henseleit buffer and lysed with 0.1 M NaOH. The amount of substrate inside the cells was determined by liquid scintillation reader.
(§2) Percent inhibition was calculated according to the following equation: % inhibition=[1−{[OATP]i−[WT]ni}/{[OATP]ni−[WT]ni}]*100 where: [OATP]i represent the substrate accumulation in the presence of test compound for either OATP1B1, OATP1B3, or OATP2B1 cells; [OATP]ni represents the substrate accumulation in the absence of test compound for either OATP1B1, OATP1B3, or OATP2B1 cells, respectively; and [WT]ni represents the substrate accumulation in the absence of test compound for wild type cells or Mock cells, respectively. IC50 Determination in Transporter Assays
(§3) IC50 was determined according to the procedures described in Example 5. […] Results are reported as NIO (no interaction observed).

[3] = molecular target: T2, OATP1B3 (Homo sapiens, UniProt Q9NPD5); experiment: OATP1B3 inhibition assay using 3H-E217βG as probe substrate, HEK293FT cells; format: cell-based; design: expressed in transfected cells
T2 sequence (Q9NPD5 1-702): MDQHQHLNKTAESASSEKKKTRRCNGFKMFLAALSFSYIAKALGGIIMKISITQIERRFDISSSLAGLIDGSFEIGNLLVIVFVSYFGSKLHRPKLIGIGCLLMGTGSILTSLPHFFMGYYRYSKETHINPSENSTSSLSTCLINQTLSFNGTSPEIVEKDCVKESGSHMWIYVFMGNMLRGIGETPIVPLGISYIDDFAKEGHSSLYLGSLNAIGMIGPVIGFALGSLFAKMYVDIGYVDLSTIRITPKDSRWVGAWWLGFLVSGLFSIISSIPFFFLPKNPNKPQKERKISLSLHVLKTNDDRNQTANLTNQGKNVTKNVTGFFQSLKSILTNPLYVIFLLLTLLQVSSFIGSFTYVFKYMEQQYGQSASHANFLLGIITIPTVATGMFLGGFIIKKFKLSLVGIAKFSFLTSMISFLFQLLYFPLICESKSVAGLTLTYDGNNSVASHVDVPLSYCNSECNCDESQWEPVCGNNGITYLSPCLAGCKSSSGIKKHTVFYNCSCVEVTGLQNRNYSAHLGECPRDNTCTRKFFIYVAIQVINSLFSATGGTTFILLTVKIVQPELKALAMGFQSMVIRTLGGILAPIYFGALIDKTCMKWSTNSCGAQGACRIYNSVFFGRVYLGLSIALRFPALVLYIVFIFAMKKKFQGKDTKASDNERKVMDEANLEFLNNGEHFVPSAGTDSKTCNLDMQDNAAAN
Procedure: as §1, §2, §3

[4] = molecular target: T3, OATP2B1 (Homo sapiens, UniProt O94956); experiment: OATP2B1 inhibition assay, 3H-E3S uptake, MDCKII cells; format: cell-based
T3 construct: expressed in transfected cells; host or cells: MDCKII cells
T3 sequence (O94956 1-709): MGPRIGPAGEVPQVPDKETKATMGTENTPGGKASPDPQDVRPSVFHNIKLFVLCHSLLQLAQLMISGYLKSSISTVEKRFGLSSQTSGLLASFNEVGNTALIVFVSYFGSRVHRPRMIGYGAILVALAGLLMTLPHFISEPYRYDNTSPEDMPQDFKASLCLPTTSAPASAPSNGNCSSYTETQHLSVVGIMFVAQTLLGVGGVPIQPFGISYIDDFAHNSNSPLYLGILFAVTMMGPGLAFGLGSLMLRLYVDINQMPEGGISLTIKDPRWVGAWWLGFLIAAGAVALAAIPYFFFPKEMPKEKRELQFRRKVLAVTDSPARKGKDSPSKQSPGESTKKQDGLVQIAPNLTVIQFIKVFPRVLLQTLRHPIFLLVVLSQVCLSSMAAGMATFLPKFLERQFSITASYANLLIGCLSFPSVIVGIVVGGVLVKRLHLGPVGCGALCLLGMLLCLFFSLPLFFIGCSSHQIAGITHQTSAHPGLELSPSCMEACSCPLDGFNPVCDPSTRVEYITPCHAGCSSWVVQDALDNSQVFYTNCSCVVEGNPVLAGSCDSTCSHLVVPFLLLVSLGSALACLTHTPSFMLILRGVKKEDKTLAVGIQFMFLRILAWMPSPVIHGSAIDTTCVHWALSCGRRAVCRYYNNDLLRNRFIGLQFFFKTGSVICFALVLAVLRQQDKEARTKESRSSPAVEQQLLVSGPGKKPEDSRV
Procedure: MDCKII-Mock and OATP2B1-transfected cells (1×10^5 cells each) were seeded 24 hr prior to assay. Pre-rinsed cells were incubated for 2 minutes with 0.2 μM ^3H-E3S in HK buffer in the presence of various concentrations of test compound or positive control fluvastatin. After the experiment cells were rinsed with Krebs-Henseleit buffer and lysed with 0.1 M NaOH. The amount of substrate inside the cells was determined by liquid scintillation reader.
as §2, §3

Compound	% of Total Radioactivity in AUC Pooled Plasma [1]	IC50 (μM) [2]	IC50 (μM) ([3]; NIO = no interaction observed)	IC50 (μM) ([4]; NIO = no interaction observed)	Maximum inhibition at highest test conc. (% of control) ([2]; at 100 μM)	inhibition at 3 min, 100 µM ([2]; human, HEK293FT cells transfected with OATP1B1, probe 3H-E217βG (1 μM), at 100 μM, read-out: Maximum inhibition at highest test conc. (% of control))	pIC50 ([3]; NIO = no interaction observed)	inhibition at 3 min, 100 µM ([3]; human, HEK293FT cells transfected with OATP1B3, probe 3H-E217βG (1 μM), at 100 μM, read-out: Maximum inhibition at highest test conc. (% of control))	pIC50 ([4]; NIO = no interaction observed)	inhibition at 2 min, 100 µM ([4]; human, MDCKII cells transfected with OATP2B1, probe 3H-E3S (0.2 μM), at 100 μM, read-out: Maximum inhibition at highest test conc. (% of control))
O=C(NCc1c(F)cc(F)cc1F)c1cn2c(c(O)c1=O)C(=O)N1[C@H]3CC[C@H](C3)O[C@@H]1C2 [BIC, bictegravir, reference compound]	95.5%	NIO	NIO	NIO	–	–	–	–	–	–
O=C(NCc1c(F)cc(F)c(OS(=O)(=O)O)c1F)c1cn2c(c(O)c1=O)C(=O)N1C(C2)O[C@@H]2CC[C@H]1C2 (some centres unmarked) [Metabolite M20]	–	NIO*	–	–	no dose dependent inhibition	12%	< 4.00	49%	< 4.00	26%
